Common to all, as to conditions: read-out: dissociation constant (Kd)
In test [1] the target is T1, rBC2LCN (recombinant BC2LCN lectin, N-terminal domain of BC2L-C protein, Burkholderia cenocepacia), wild-type, SEQ ID NO: 1 (Burkholderia cenocepacia, UniProt B4EH86).
T1 sequence (B4EH86 1-156): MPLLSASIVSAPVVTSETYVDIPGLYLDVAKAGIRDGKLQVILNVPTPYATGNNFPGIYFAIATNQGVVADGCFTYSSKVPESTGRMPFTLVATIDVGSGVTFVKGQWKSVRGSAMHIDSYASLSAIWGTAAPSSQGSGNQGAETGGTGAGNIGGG
In words: Binding affinity of wild-type rBC2LCN to sugar chain ligands by frontal affinity chromatography. An excerpt: (§1) The binding affinities of rBC2LCN-ETA and wild-type rBC2LCN to “Fucα1-2Galβ1-3GlcNAc (H type 1)” and “Fucα1-2Galβ1-3GalNAc (H type 3)” as sugar chain ligands for rBC2LCN were examined by frontal affinity chromatography (Non Patent Literature 8). The results are shown below (Table 1).

In test [2] the target is T2, rBC2LCN-ETA fusion protein, rBC2LCN-(GSGGG)2-ETA (Burkholderia cenocepacia rBC2LCN, SEQ ID NO: 1, fused through spacer GSGGG, SEQ ID NO: 3, to cell-killing doma (Burkholderia cenocepacia, UniProt B4EH86)).
T2 construct: E. coli
Nature of the test: Binding affinity of rBC2LCN-ETA fusion protein to sugar chain ligands by frontal affinity chromatography. Also on record: species or system Burkholderia cenocepacia / Pseudomonas aeruginosa.
Text: as §1

For test [3], the target named is T3, rBC2LCN-ETA fusion protein, rBC2LCN-(GSGGG)2-ETA (Burkholderia cenocepacia rBC2LCN, SEQ ID NO: 1, fused through spacer GSGGG, SEQ ID NO: 3, to cell-killing domain of Pseudomonas aeruginosa exotoxin A, SEQ ID NO: 2) (Burkholderia cenocepacia, UniProt B4EH86).
T3 construct: E. coli
Described as above.
Text: as §1

As to `CC(=O)N[C@H]1[C@@H](Oc2ccc([N+](=O)[O-])cc2)O[C@H](CO)[C@H](O)[C@@H]1O[C@@H]1O[C@H](CO)[C@H](O)[C@H](O)[C@H]1O[C@@H]1O[C@@H](C)[C@@H](O)[C@@H](O)[C@@H]1O` [H type 3, Fucα1-2Galβ1-3GalNAc], the Kd in test [1] was determined as 25.4 µM; in test [2] it was 32.3 µM.
`CC(=O)N[C@H]1[C@@H](Oc2ccc([N+](=O)[O-])cc2)O[C@H](CO)[C@H](O)[C@@H]1O[C@@H]1O[C@H](CO)[C@H](O)[C@H](O)[C@H]1O[C@@H]1O[C@@H](C)[C@@H](O)[C@@H](O)[C@@H]1O` [H type3-pNP]: the Kd in test [1] is 32.3 µM; in test [2], 25.4 µM.
Take `CC(=O)N[C@H]1[C@H](Oc2ccc([N+](=O)[O-])cc2)O[C@H](CO)[C@@H](O)[C@@H]1O[C@@H]1O[C@H](CO)[C@H](O)[C@H](O)[C@H]1O[C@@H]1O[C@@H](C)[C@@H](O)[C@@H](O)[C@@H]1O` [H type1-pNP]: the values for the Kd in test [1] and in test [3] were 9.9 µM and 8.3 µM, respectively.

Source of the values: patent publication US9914908B2, “Method of introducing a toxin or dye into mammalian pluripotent cells using rBC2LCN” (National Institute of Advanced Industrial Science and …, priority 2013, dated 2018).
